Reference: ChEMBL document CHEMBL1138268, “Synthesis and evaluation of cis-1-[4-(hydroxymethyl)-2-cyclopenten-1-yl]-5-[(124)I]iodouracil: a new potential PET imaging agent for HSV1-tk expression” (J Med Chem, 2007)
pIC50: −log10 of the molar value.

Columns and labels:
[1] = Cytotoxicity against MCA cells; assay type: cell-based
[2] = Cytotoxicity against MCA-TK cells; assay type: cell-based
[3] = Metabolic stability in mouse liver microsomes after 30 min; assay type: ADME, Microsome
[4] = Metabolic stability in mouse serum after 6 hrs; assay type: ADME, cell-free

| half-life [3] | half-life [4] | Compound | pIC50 [1] | pIC50 [2] |
| --- | --- | --- | --- | --- |
| – | – | Nc1nc2c(ncn2COC(CO)CO)c(=O)[nH]1 [GANCICLOVIR] | 3.57 | 6.82 |
| 1.24 h | 22.6 h | O=c1[nH]c(=O)n([C@H]2C[C@H](O)[C@@H](CO)O2)cc1I [IDOXURIDINE] | – | – |
